Results published in patent US20210395256A1, “TYROSINE KINASE INHIBITORS, COMPOSITIONS AND METHODS THERE OF” (Betta Pharmaceuticals Co., Ltd., priority 2018, published 2021).
Like-named read-outs stand apart in the source and are kept apart here.

How the values were obtained:
[1] = target: T1, Ba/F3-ETV6-NTRK3 (Homo sapiens, UniProt Q16288); test: Ba/F3-ETV6-NTRK3 cells proliferation assay; format: cell-based; settings: 72 h, CellTiter Glo
T1 construct: Ba/F3 cells with TPM3-NTRK1 or ETV6-NTRK3 fusion mutation gene stably overexpressed named Ba/F3-TPM3-NTRK1 and Ba/F3-ETV6-NTRK3; fused on or other part: P41212 (Transcription factor ETV6)
Experimental: (§1) Example 202 Ba/F3-TPM3-NTRK1 and Ba/F3-ETV6-NTRK3 cells proliferation assay
(§2) Cell line: Ba/F3 cells with TPM3-NTRK1 or ETV6-NTRK3 fusion mutation gene stably overexpressed named Ba/F3-TPM3-NTRK1 and Ba/F3-ETV6-NTRK3.
(§3) RPMI 1640 and 10% FBS and 1% PS and 2 ug/mL puromycin.
(§4) b) Collect cell to a 15 mL centrifuged tube, centrifuge at 1000 rpm for 5 min. Discard the supernatant, count, and make the cell density at 1.49×10^4 cells/mL, then place it in a 37° C., 5% CO2 incubator.
(§5) a) The test compound (20 mM stock solution) was diluted to 60 μM with 100% DMSO as starting concentration then 3-fold serial diluted with “9+0” concentrations. in a 96-well dilution plate (Thermo, Cat. No. 249944);
(§6) b) The above compound solution was diluted 1:20 times with culture medium to prepare a 10 fold working solution;
(§7) a) Take cells in log phase growth, centrifuge at 1000 rpm for 5 min, then resuspend the cells with culture medium, then count cells;
(§8) b) Cells were seeded to 96-well cell culture plate with density at 2000 cells/well;
(§9) a) Compounds prepared at step 2 were added to cell plate with 15 μL per well, the final concentrations were 300, 100, 33.33, 11.11, 3.70, 1.23, 0.41, 0.14, 0.05 and 0 nM, and the final concentration of DMSO was 0.5%. The blank control well was a culture medium (0.5% DMSO);
(§10) c) The cells were incubated for an additional 72 h in the incubator.
(§11) a) Remove the 96-well cell culture plate and add 50 μl of CTG reagent (CellTiter Glo kit, promega, Cat #G7573).
(§12) b) Plate was shaked for 2 min and then let it cool for 30 min at room temperature.
(§13) c) The Luminescence signal value was read using a PerkinElmer reader.
(§14) Experimental Data Analysis
(§15) Data were analyzed using GraphPad Prism 6.0 software to obtain a fitted curve of compound activity.
(§16) Fit the Compound IC50 from non-linear regression equation:
(§17) Y=Bottom+(Top-Bottom)/(1+10^((Log IC50-X)×HillSlope));
(§18) X: The log of the concentration of the compound; Y: Luminescence value.

[2] = target: TrkA kinase (Homo sapiens, UniProt P04629); test: TrkA kinase assay (mobility shift assay); format: biochemical; settings: read-out: Trk A Kinase IC50
Method in brief: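 Ten-point compound series was preincubated 10 min at room temperature with TrkA, then FAM-peptide plus ATP added in HEPES pH 7.5/Brij-35 buffer and reacted at 28 °C before EDTA quench.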

[3] = target: T2, Ba/F3-TPM3-NTRK1 (Homo sapiens, UniProt P04629); test: Ba/F3-TPM3-NTRK1 cells proliferation assay; format: cell-based; settings: 72 h, CellTiter Glo
T2 construct: expressed in transfected cells; host or cells: Ba/F3; the other entry of the earlier key: TPM3 (P06753, Tropomyosin alpha-3 chain)
Experimental: as §1, §2, §3, §4, §5, §6, §7, §8, §9, §10, §11, §12, §13, §14, §15, §16, §17, §18

[4] = Liver microsomes metabolic stability assay, rat; format: in vitro ADME; settings: rat liver microsomes 0.5 mg/mL, 37° C.
Experimental: (§19) Example 203 Liver Microsomes Metabolic Stability Assay
(§20) Pooled human liver microsomes (Cat. 452117) were purchased from Corning. Pooled male rat liver microsomes (Cat. R1000) and pooled male mouse liver microsomes (Cat. M1000) were purchased from XENOTECH. Microsomes were stored at −80° C.
(§21) 1) Make a master solution containing phosphate buffer, ultra-pure H2O and MgCl2 solution according to Table 14.
(§22) 2) Two separated experiments were performed as follows.
(§23) a) With NADPH: 10 μL of 20 mg/mL liver microsomes and 40 μL of 10 mM NADPH were added to the incubations. The final concentrations of microsomes and NADPH were 0.5 mg/mL and 1 mM, respectively.
(§24) b) Without NADPH: 10 μL of 20 mg/mL liver microsomes and 40 μL of ultra-pure H2O were added to the incubations. The final concentration of microsomes was 0.5 mg/mL.
(§25) 3) The reaction was started with the addition of 4 μL test compounds solutions or control compound solution (verapamil) at the final concentration of 2 μM and carried out at 37° C.
(§26) 4) Aliquots of 50 μL were taken from the reaction solution at 0, 15, 30, 45 and 60 min. The reaction solutions were stopped by the addition of 4 volumes of cold acetonitrile with 1S (100 nM alprazolam, 200 nM caffeine, 200 nM labetalol and 2 μM ketoprofen). Samples were centrifuged at 3,220 g for 40 minutes. Aliquot of 100 μL of the supernatant was mixed with 100 μL of ultra-pure H2O and then used for LC-MS/MS analysis. All experiments were performed in duplicate.
(§27) The slope value, k, was determined by linear regression of the natural logarithm of the remaining percentage of the parent drug vs. incubation time curve.
(§28) The in vitro half-life (in vitro t1/2) was determined from the slope value:
(§29) Conversion of the in vitro t1/2 (in min) into the in vitro intrinsic clearance (in vitro CLint, in μL/min/mg proteins) was done using the following equation (mean of duplicate determinations): […]
(§30) The control compound (verapamil) was included in the assay. Any value of the compounds that was not within the specified limits will be rejected and the experiment will be repeated.

[5] = Liver microsomes metabolic stability assay, mouse; format: in vitro ADME; settings: mouse liver microsomes 0.5 mg/mL, 37° C.
Experimental: as §19, §20, §21, §22, §23, §24, §25, §26, §27, §28, §29, §30

[6] = Liver microsomes metabolic stability assay, human; format: in vitro ADME; settings: human liver microsomes 0.5 mg/mL, 37° C.
Experimental: as §19, §20, §21, §22, §23, §24, §25, §26, §27, §28, §29, §30

Chain of TrkA kinase (P04629 33-796): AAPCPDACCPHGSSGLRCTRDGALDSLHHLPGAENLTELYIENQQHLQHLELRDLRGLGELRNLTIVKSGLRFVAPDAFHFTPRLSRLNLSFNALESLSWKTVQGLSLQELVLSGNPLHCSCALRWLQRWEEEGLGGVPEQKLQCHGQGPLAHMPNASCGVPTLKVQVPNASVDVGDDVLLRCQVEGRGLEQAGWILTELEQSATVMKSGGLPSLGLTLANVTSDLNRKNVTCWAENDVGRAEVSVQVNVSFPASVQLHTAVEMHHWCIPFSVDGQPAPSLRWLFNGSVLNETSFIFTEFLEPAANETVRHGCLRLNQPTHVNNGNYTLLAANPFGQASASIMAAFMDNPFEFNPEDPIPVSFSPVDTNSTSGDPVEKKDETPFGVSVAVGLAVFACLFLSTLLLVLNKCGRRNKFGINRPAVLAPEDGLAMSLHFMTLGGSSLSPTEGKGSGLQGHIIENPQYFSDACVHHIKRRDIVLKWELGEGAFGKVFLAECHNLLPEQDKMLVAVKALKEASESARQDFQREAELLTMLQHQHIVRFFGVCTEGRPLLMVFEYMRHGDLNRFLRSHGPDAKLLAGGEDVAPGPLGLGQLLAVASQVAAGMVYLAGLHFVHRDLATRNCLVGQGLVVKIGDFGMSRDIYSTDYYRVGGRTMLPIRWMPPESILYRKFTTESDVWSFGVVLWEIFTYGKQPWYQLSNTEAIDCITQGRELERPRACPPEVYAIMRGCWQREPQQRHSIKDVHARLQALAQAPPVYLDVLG
T1 sequence (Q16288 whole entry, the tested form may be a part): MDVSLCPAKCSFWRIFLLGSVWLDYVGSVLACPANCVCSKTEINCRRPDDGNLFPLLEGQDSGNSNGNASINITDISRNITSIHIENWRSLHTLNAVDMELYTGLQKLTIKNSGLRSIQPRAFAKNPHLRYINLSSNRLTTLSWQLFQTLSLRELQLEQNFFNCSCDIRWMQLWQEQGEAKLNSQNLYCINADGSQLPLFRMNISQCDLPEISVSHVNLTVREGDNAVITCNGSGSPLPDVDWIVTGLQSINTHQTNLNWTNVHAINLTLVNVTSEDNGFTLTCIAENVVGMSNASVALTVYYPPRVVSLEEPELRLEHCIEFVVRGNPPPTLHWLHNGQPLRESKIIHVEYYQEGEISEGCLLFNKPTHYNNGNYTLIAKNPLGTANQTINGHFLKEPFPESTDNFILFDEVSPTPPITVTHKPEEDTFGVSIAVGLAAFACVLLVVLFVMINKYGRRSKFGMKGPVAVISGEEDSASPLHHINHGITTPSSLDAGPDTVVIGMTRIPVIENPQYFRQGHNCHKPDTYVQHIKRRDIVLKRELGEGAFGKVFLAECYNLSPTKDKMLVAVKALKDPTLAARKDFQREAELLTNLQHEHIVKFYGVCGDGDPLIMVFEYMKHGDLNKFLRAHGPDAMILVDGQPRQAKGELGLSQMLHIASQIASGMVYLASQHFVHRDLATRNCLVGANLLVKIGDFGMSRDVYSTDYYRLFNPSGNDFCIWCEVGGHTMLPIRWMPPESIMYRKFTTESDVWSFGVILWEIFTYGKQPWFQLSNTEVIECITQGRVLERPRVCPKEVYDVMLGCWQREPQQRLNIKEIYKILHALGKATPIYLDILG
T2 sequence (P04629 510-796 limits assumed): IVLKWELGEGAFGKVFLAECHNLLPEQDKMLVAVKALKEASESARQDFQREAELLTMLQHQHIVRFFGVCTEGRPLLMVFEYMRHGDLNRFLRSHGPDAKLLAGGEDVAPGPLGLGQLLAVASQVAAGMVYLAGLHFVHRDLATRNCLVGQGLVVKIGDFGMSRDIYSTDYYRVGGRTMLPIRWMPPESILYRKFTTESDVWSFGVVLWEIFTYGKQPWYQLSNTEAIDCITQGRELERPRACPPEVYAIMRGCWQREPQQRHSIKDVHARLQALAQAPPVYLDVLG

Compound | IC50 [1] [nM] | IC50 ([2]; class symbols) [nM] | IC50 [3] [nM] | other results
Fc1ccc(F)c([C@H]2CCCN2c2ccn3ncc(-c4nnc(-c5ccncc5)[nH]4)c3n2)c1 [Compound 8, (R)-5-(2-(2,5-difluorophenyl)pyrrolidin-1-yl)-3-(5-(pyridin-4-yl)-4H-1,2,4-triazol-3-yl)pyrazolo[1,5-a]pyrimidine] | 1.55 |  |  | 
Oc1ccc(-c2nnc(-c3cnn4ccc(N5CCC[C@@H]5c5cc(F)ccc5F)nc34)[nH]2)cc1 [Compound 9, (R)-4-(5-(5-(2-(2,5-difluorophenyl)pyrrolidin-1-yl)pyrazolo[1,5-a]pyrimidin-3-yl)-4H-1,2,4-triazol-3-yl)phenol] | 2.11 | 10 to 50 | 2.05 | 
Fc1ccc(F)c([C@H]2CCCN2c2ccn3ncc(-c4nnc(-c5cnccn5)[nH]4)c3n2)c1 [Compound 10, (R)-5-(2-(2,5-difluorophenyl)pyrrolidin-1-yl)-3-(5-(pyrazin-2-yl)-4H-1,2,4-triazol-3-yl)pyrazolo[1,5-a]pyrimidine] | 1.2 | 10 to 50 | 1.16 | 
COC(=O)N[C@@H](C)c1nnc(-c2cnn3ccc(N4CCC[C@@H]4c4cc(F)ccc4F)nc23)[nH]1 [Compound 12, methyl ((S)-1-(5-(5-((R)-2-(2,5-difluorophenyl)pyrrolidin-1-yl)pyrazolo[1,5-a]pyrimidin-3-yl)-4H-1,2,4-triazol-3-yl)ethyl)carbamate] | 2.72 | > 50 | 7.71 | 
N#Cc1cccc(-c2nnc(-c3cnn4ccc(N5CCC[C@@H]5c5cc(F)ccc5F)nc34)[nH]2)c1 [Compound 13, (R)-3-(5-(5-(2-(2,5-difluorophenyl)pyrrolidin-1-yl)pyrazolo[1,5-a]pyrimidin-3-yl)-4H-1,2,4-triazol-3-yl)benzonitrile] | 1.83 | ≤ 10 | 0.98 | 
Fc1ccc(F)c([C@H]2CCCN2c2ccn3ncc(-c4nnc(-c5ccc(C(F)(F)F)nc5)[nH]4)c3n2)c1 [Compound 14, (R)-5-(2-(2,5-difluorophenyl)pyrrolidin-1-yl)-3-(5-(6-(trifluoromethyl)pyridin-3-yl)-4H-1,2,4-triazol-3-yl)pyrazolo[1,5-a]pyrimidine] | 10 | > 50 | 12.5 | 
CCOC(=O)c1nnc(-c2cnn3ccc(N4CCC[C@@H]4c4cc(F)ccc4F)nc23)[nH]1 [Compound 16, ethyl (R)-5-(5-(2-(2,5-difluorophenyl)pyrrolidin-1-yl)pyrazolo[1,5-a]pyrimidin-3-yl)-4H-1,2,4-triazole-3-carboxylate] | 4.21 | > 50 | 9.18 | 
O=C(O)c1nnc(-c2cnn3ccc(N4CCC[C@@H]4c4cc(F)ccc4F)nc23)[nH]1 [Compound 17, (R)-5-(5-(2-(2,5-difluorophenyl)pyrrolidin-1-yl)pyrazolo[1,5-a]pyrimidin-3-yl)-4H-1,2,4-triazole-3-carboxylic acid] | 3.56 | > 50 | 4.1 | half-life at 2 μM ([4]; male, read-out: t1/2 Rat): 10.4 h; CLint Rat ([4]; 2 μM): 0.00 μL/min/mg proteins; microsomal CLint at 2 μM ([5]; male): 2.23 µL/min/mg; t1/2 Mouse ([5]; 2 μM): ∞; t1/2 Human ([6]; 2 μM): ∞; microsomal CLint at 2 μM [6]: 0.27 µL/min/mg
OC1CCC[C@H](c2nnc(-c3cnn4ccc(N5CCC[C@@H]5c5cc(F)ccc5F)nc34)[nH]2)C1 (stereo partly drawn) [Compound 18, (3S)-3-(5-(5-((R)-2-(2,5-difluorophenyl)pyrrolidin-1-yl)pyrazolo[1,5-a]pyrimidin-3-yl)-4H-1,2,4-triazol-3-yl)cyclohexan-1-ol] | 2.83 | 10 to 50 | 3.81 | 
Fc1ccc(F)c([C@H]2CCCN2c2ccn3ncc(-c4nnc(C5CCNCC5)[nH]4)c3n2)c1 [Compound 22, (R)-5-(2-(2,5-difluorophenyl)pyrrolidin-1-yl)-3-(5-(piperidin-4-yl)-4H-1,2,4-triazol-3-yl)pyrazolo[1,5-a]pyrimidine] | 2.45 | 10 to 50 | 2.93 | 
O=C(O)c1cc2nc(-c3cnn4ccc(N5CCC[C@@H]5c5cc(F)ccc5F)nc34)[nH]c2cc1F [Compound 141, (R)-2-(5-(2-(2,5-difluorophenyl)pyrrolidin-1-yl)pyrazolo[1,5-a]pyrimidin-3-yl)-6-fluoro-1H-benzo[d]imidazole-5-carboxylic acid] | 20.8 |  | 30.1 | IC50 ([2]; numeric values): 0.3 nM
COC(=O)[C@@H]1CCCN1c1cc2[nH]c(-c3cnn4ccc(N5CCC[C@@H]5c5cc(F)ccc5F)nc34)nc2cc1C#N [Compound 166, methyl (5-cyano-2-(5-((R)-2-(2,5-difluorophenyl)pyrrolidin-1-yl)pyrazolo[1,5-a]pyrimidin-3-yl)-1H-benzo[d]imidazol-6-yl)-L-prolinate] | 7.73 |  | 4.67 | IC50 ([2]; numeric values): 2.5 nM
N#Cc1cc2nc(-c3cnn4ccc(N5CCC[C@@H]5c5cc(F)ccc5F)nc34)[nH]c2cc1N1CCC[C@H]1C(=O)O [Compound 167, (5-cyano-2-(5-((R)-2-(2,5-difluorophenyl)pyrrolidin-1-yl)pyrazolo[1,5-a]pyrimidin-3-yl)-1H-benzo[d]imidazol-6-yl)-L-proline] | 19.6 |  | 13.2 | IC50 ([2]; numeric values): 0.3 nM
